For six molecules, minimal effective concentration and inhibition in vivo results are on record in patent publication US10570129B2 (Zoetis Services LLC, priority 2015, dated 2020).

Molecules are shown by their SMILES.

The test system of one assay is D. immitis microfilariae. Description: Dirofilaria immitis, microfilariae (DiMF) in vitro motility assay. It counts as cell-based. Conditions: Dirofilaria immitis, 72 h, read-out: DiMF minimally effective dose (MEC).
The subject of the next assay is Haemonchus contortus L3. Description: microbe, parasite or virus in culture. Conditions: Haemonchus contortus, 96 h, read-out: HcL3 Minimal Effective Concentration (MEC). The assay is classed as cell-based.
For assay [1], the system named is Trichostrongylus colubriformis. Description: Jird efficacy model. The assay is classed as in vivo. The conditions noted are these: Trichostrongylus colubriformis, sc, 96 h, read-out: Jird % (percentage efficacy).

`O=C(NCc1ccnc(F)c1)n1c2c(c3cc(C(F)(F)F)ccc31)CN(C/C=C/c1ccc(F)cc1F)CC2` [Example 417, (E)-2-(3-(2,4-difluorophenyl)allyl)-N-((2-fluoropyridin-4-yl)methyl)-8-(trifluoromethyl)-1,2,3,4-tetrahydro-5H-pyrido[4,3-b]indole-5-carboxamide]: the minimal effective concentration is 10 µM with D. immitis microfilariae and 5.7 µM in the assay on Haemonchus contortus L3. In assay [1], the inhibition in vivo at 10 mg/kg is 100%.
In the same order, the values of `N#Cc1ccc2c(c1)c1c(n2C(=O)NCc2ccnc(F)c2)CCN(C/C=C/c2ccc(F)c(Br)c2)C1` [Example 109, (E)-2-(3-(3-bromo-4-fluorophenyl)allyl)-8-cyano-N-((2-fluoropyridin-4-yl)methyl)-1,2,3,4-tetrahydro-5H-pyrido[4,3-b]indole-5-carboxamide] are 18.2 µM, 1.22 µM and 99%.
In the same order, the values of `N#Cc1ccc2c(c1)c1c(n2C(=O)NCc2ccnc(F)c2)CCN(C/C=C/c2cc(Br)ccc2F)C1` [Example 108, (E)-2-(3-(5-bromo-2-fluorophenyl)allyl)-8-cyano-N-((2-fluoropyridin-4-yl)methyl)-1,2,3,4-tetrahydro-5H-pyrido[4,3-b]indole-5-carboxamide] are 3.2 µM, 2.4 µM and 100%.
In the same order, the values of `N#Cc1ccc2c(c1)c1c(n2C(=O)NCc2ccnc(F)c2)CCN(C/C=C/c2cc(F)c(Cl)c(F)c2)C1` [Example 99, (E)-2-(3-(4-chloro-3,5-difluorophenyl)allyl)-8-cyano-N-((2-fluoropyridin-4-yl)methyl)-1,2,3,4-tetrahydro-5H-pyrido[4,3-b]indole-5-carboxamide] are 10 µM, 0.1 µM and 100%.
For the molecule `O=C(NCc1ccnc(F)c1)n1c2c(c3ccc(Cl)cc31)CN(C/C=C/c1ccc(F)c(F)c1)CC2` [Example 228, (E)-7-chloro-2-(3-(3,4-difluorophenyl)allyl)-N-((2-fluoropyridin-4-yl)methyl)-1,2,3,4-tetrahydro-5H-pyrido[4,3-b]indole-5-carboxamide], the minimal effective concentration was 3.3 µM in the assay with D. immitis microfilariae and 1.8 µM in the assay on Haemonchus contortus L3. The inhibition in vivo at 10 mg/kg in assay [1] was 98%.
Turning to `N#Cc1ccc2c3c(n(C(=O)NCc4ccnc(Cl)c4)c2c1)CCN(C/C=C/c1ccc(Cl)c(Cl)c1)C3` [Example 35, (E)-N-((2-chloropyridin-4-yl)methyl)-7-cyano-2-(3-(3,4-dichlorophenyl)allyl)-1,2,3,4-tetrahydro-5H-pyrido[4,3-b]indole-5-carboxamide], the minimal effective concentration was 33 µM in the assay on D. immitis microfilariae and 3.3 µM in the assay on Haemonchus contortus L3. The inhibition in vivo at 10 mg/kg in assay [1] is 100%.
